# Reference: US5648366A, “Substituted pyrrolidin-3-yl-alkyl-piperidines” (Merrell Pharmaceuticals Inc., priority 1995, dated 1997)
# Molecular target: T1, NK-3 receptor (Cavia porcellus, UniProt P30098)
# T1 construct: freshly collected guinea pig cerebral cortex; from tissue; host or cells: guinea pig cerebral cortex membranes
# T1 sequence (P30098 1-440): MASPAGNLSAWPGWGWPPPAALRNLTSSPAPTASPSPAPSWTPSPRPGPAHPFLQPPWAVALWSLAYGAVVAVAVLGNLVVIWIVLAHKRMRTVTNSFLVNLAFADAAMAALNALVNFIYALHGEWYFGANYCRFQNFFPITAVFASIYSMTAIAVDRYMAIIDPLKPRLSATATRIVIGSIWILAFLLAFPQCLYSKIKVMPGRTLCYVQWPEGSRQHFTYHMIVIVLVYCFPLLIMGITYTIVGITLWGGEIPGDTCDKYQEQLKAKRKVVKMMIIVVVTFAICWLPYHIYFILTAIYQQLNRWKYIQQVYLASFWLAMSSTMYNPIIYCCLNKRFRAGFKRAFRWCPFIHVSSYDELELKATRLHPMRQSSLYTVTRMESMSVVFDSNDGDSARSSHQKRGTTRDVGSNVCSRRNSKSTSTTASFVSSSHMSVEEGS
# Test: Antagonism of iodinated tachykinin (125I-eledoisin) binding to NK3 receptor in guinea pig cerebral cortex
# Description: ANTAGONISM OF IODINATED TACHYKININ BINDING TO NK1 AND NK2 RECEPTORS BY PUTATIVE ANTAGONISTS
# The NK1 receptor affinity of proposed tachykinin antagonists was evaluated in guinea pig lungs (Keystone Biologicals, Cleveland, Ohio), affinity for the NK2 receptor evaluated in HSKR-1 cells (which are mouse 3T3 fibroblasts expressing the human jejunal NK2 receptor) and NK-3 receptor affinity was evaluated in freshly collected guinea pig cerebral cortex. Tissues or cells were homogenized with a Polytron in 15 volumes of 50 mM Tris-HCl buffer (pH 7.4, 4° C.) and centrifuged. The pellet was resuspended in Tris-HCl buffer and was centrifuged; the pellet was washed twice by resuspension. The final pellet was resuspended at a concentration of 40 mg/ml for tissues (guinea pig lung and cerebral cortex) and 20 mg/ml for cells in incubation buffer and remained at room temperature for at least 15 min prior to use. […] Filter bound radioactivity was quantitated in a gamma counter. […] Specific binding was calculated by subtracting nonspecific binding from total binding. Competition of iodinated SP, NKA, or eledoisin binding by test compounds or standards was expressed as a percentage of this maximum competition. […]
smiles,measurement,value
"COc1cc(C(=O)N2CCC(CCN3CCC(C(N)=O)(c4ccccc4)CC3)(c3ccc(Cl)c(Cl)c3)C2)cc(OC)c1OC (stereo not shown) [Example 3, 1-[2-[3-(3,4-dichloro-phenyl)-1-(3,4,5-trimethoxy-benzoyl)-pyrrolidin-3-yl]-ethyl]-4-phenyl-piperidine-4-carboxylic acid amide]",affinity for NK3 receptors (in words),high affinity
